Results: paper PMC9259562 (Scientific Reports, 2022)
Square brackets hold non-standard residues; d marks the D form. Peptide text beside a SMILES is read from it. βAla = NCCC(=O)O

Key:
[1] = test system: Stx2a cytotoxicity in Vero cells; settings: 72 h
[2] = target: Stx2a A-subunit (Escherichia phage 933W, UniProt P09385); assay: biochemical; assay type: binding, Escherichia coli
Chain of Stx2a A-subunit (P09385 23-319 limits assumed): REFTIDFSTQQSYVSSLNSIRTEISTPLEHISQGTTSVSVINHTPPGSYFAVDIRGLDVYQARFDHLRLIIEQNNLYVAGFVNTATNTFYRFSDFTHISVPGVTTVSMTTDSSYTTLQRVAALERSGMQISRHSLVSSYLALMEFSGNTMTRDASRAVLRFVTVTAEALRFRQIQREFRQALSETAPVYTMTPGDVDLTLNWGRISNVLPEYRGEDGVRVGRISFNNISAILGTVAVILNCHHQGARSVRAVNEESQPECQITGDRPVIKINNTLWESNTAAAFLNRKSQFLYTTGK

Row | SMILES | IC50 [1] [µM] | IC50 [2] [µM]
1 | C[C@H](N)C(=O)N[C@@H](CCCNC(=N)N)C(=O)N[C@@H](CCCNC(=N)N)C(=O)N[C@@H](CCCNC(=N)N)C(=O)N[C@@H](CCCNC(=N)N)C(=O)N[C@@H](C)C(N)=O [AR4A-mono] (H-ARRRRA-NH2) | 51.6 ± 2.2 | 2.27
2 | CSCC[C@H](NC(=O)[C@H](C)NC(=O)[C@@H](N)CCSC)C(=O)N[C@@H](CCSC)C(=O)NCCC(=O)N[C@@H](CCCNC(=N)N)C(=O)N[C@@H](CCCNC(=N)N)C(=O)N[C@@H](CCCNC(=N)N)C(=O)N[C@@H](CCCNC(=N)N)C(=O)N[C@@H](C)C(N)=O [MMβA-mono, reference compound] (H-MAMM[βAla]RRRRA-NH2) | 21 ± 4 | –
3 | C[C@H](NC(=O)[C@H](CCCNC(=N)N)NC(=O)[C@@H](N)CCCNC(=N)N)C(N)=O [R2A-mono] (H-Arg-Arg-Ala-NH2) | 66 ± 17 | 132
4 | N=C(N)NCCC[C@H](NC(=O)[C@H](CCCNC(=N)N)NC(=O)[C@@H](N)CCCNC(=N)N)C(N)=O [R3-mono] (H-Arg-Arg-Arg-NH2) | 78.7 ± 4.7 | 3.68
5 | C[C@H](NC(=O)[C@H](CCCNC(=N)N)NC(=O)[C@H](CCCNC(=N)N)NC(=O)[C@@H](N)CCCNC(=N)N)C(N)=O [R3A-mono] (H-RRRA-NH2) | 52.1 ± 3.5 | 89.6
6 | N=C(N)NCCC[C@H](NC(=O)[C@H](CCCNC(=N)N)NC(=O)[C@H](CCCNC(=N)N)NC(=O)[C@@H](N)CCCNC(=N)N)C(N)=O [R4-mono] (H-RRRR-NH2) | 55.4 ± 8.9 | 0.387
7 | C[C@H](NC(=O)[C@H](CCCNC(=N)N)NC(=O)[C@H](CCCNC(=N)N)NC(=O)[C@H](CCCNC(=N)N)NC(=O)[C@@H](N)CCCNC(=N)N)C(N)=O [R4A-mono] (H-RRRRA-NH2) | 56.8 ± 2.8 | –
